This passage reports Activity results from ChEMBL document CHEMBL1127917, “The phosphonate analog of 5-methylthioribose 1--phosphate” (Bioorg Med Chem Lett, 1994).

The source made the active and inactive calls. No cut-off for these calls is given here.

This experiment relates to Klebsiella pneumoniae. Nature of the experiment: Tested for inhibition of oxygen uptake by the compound included in an extract of Klebsiella pneumoniae along with substrate 1 at the dose of 0.8 mM; No inhibition. It is filed as functional, organism-based.

For `CSCC1OC(CP(=O)(O)O)[C@H](O)[C@@H]1O` (stereo partly specified), the outcome was inactive.
